This passage reports GI50 and TGI results from PubChem BioAssay (NCI).

Some test systems named below: MDA-MB-231 breast; HCC-2998 colon; NCI/ADR-RES ovarian; T-47D breast; SR leukemia; PC-3 prostate; SK-MEL-2 melanoma; CAKI-1 renal.
Common to all, as to experiment: growth of human tumour cells (NCI), 48 h

Structures are written as SMILES.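 Each compound was tested at five concentrations against cells in 96-well plates for 48 hours. The concentration for 50% growth inhibition is given as GI50. TGI: total growth inhibition.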

For the compound `COc1cccc(/C=C/[N+](=O)[O-])c1`, the GI50 was 6410 nM in the assay with MDA-MB-231 breast; 1930 nM in the assay with HCC-2998 colon; 26200 nM with NCI/ADR-RES ovarian; 2510 nM in the assay on T-47D breast; 1640 nM with SR leukemia; 4580 nM in the assay with PC-3 prostate. For the same compound, in the assay on SK-MEL-2 melanoma, the GI50 is 17400 nM. Also, the TGI amounted to 20800 nM with MDA-MB-231 breast; 3510 nM in the assay with HCC-2998 colon; 97800 nM with NCI/ADR-RES ovarian; 9600 nM in the assay on T-47D breast; 5180 nM in the assay with SR leukemia; 17000 nM in the assay on PC-3 prostate. The compound further registered a TGI with SK-MEL-2 melanoma of 35900 nM.

For `CCN(Cc1ccccc1)c1ccc(CO)c(Cl)c1`, the GI50 with MDA-MB-231 breast was 21200 nM; in the assay on CAKI-1 renal, 845 nM; in the assay with HCC-2998 colon, 8330 nM; in the assay on NCI/ADR-RES ovarian, 14400 nM; with T-47D breast, 278 nM; in the assay with SR leukemia, more than 52100 nM. For the same compound, the GI50 with PC-3 prostate was 18200 nM; with SK-MEL-2 melanoma, 3790 nM. Further, the TGI in the assay with MDA-MB-231 breast is more than 100000 nM; in the assay with CAKI-1 renal, 21400 nM; with HCC-2998 colon, 34500 nM; in the assay with NCI/ADR-RES ovarian it was 56800 nM; with T-47D breast, 2250 nM; in the assay on SR leukemia, more than 100000 nM. For the same compound, the TGI with PC-3 prostate is more than 53600 nM; in the assay on SK-MEL-2 melanoma it was 24700 nM.

Regarding `COc1ccc(-c2cc(-c3cccn3C)c(C#N)c(=O)[nH]2)cc1OC`, the GI50 in the assay with MDA-MB-231 breast was more than 100000 nM; in the assay on CAKI-1 renal, more than 100000 nM; in the assay on HCC-2998 colon, 88700 nM; with NCI/ADR-RES ovarian it was more than 100000 nM; in the assay with T-47D breast it was 34700 nM; in the assay on SR leukemia, 483 nM. Moreover, the GI50 in the assay with PC-3 prostate and in the assay with SK-MEL-2 melanoma was more than 100000 nM each time. Besides, the TGI with MDA-MB-231 breast, in the assay on CAKI-1 renal, in the assay with HCC-2998 colon, with NCI/ADR-RES ovarian, with T-47D breast and with SR leukemia was more than 100000 nM in each case. Also, the TGI in the assay with PC-3 prostate and in the assay with SK-MEL-2 melanoma was more than 100000 nM throughout.

Turning to `COc1ccc(-c2cc(-c3ccc(Cl)cc3)nc(SCCCC(=O)NO)n2)cc1`, the GI50 in the assay with MDA-MB-231 breast is 1220 nM; in the assay with CAKI-1 renal it was 284 nM; with HCC-2998 colon, 1680 nM; with NCI/ADR-RES ovarian, 314 nM; in the assay on T-47D breast it was 801 nM; with SR leukemia it was 358 nM. Moreover, the GI50 was 874 nM with PC-3 prostate and 2420 nM with SK-MEL-2 melanoma. Besides, the TGI with MDA-MB-231 breast is 5300 nM; in the assay on CAKI-1 renal, 1290 nM; in the assay with HCC-2998 colon it was 3450 nM; with NCI/ADR-RES ovarian it was 1280 nM; in the assay with T-47D breast it was 7460 nM; in the assay on PC-3 prostate, 3610 nM. This compound also had a TGI in the assay with SK-MEL-2 melanoma of 6940 nM.

In the case of `C/C(=N\Nc1cc(C)c2ccccc2n1)c1ccccn1`, the GI50 was less than 28.3 nM with MDA-MB-231 breast; less than 44.5 nM with HCC-2998 colon; 71.7 nM with NCI/ADR-RES ovarian; less than 20.8 nM in the assay on T-47D breast; less than 29.3 nM in the assay on SR leukemia; 82.1 nM in the assay on PC-3 prostate. Moreover, the GI50 in the assay with SK-MEL-2 melanoma was 357 nM. In addition, the TGI worked out at 1660 nM in the assay on MDA-MB-231 breast; 544 nM in the assay with CAKI-1 renal; 2150 nM with HCC-2998 colon; 1420 nM with NCI/ADR-RES ovarian; 2780 nM with T-47D breast; 2390 nM in the assay on SR leukemia. Besides, the TGI in the assay on PC-3 prostate worked out at 4500 nM; in the assay on SK-MEL-2 melanoma, 11100 nM.

For `Nc1c2c(c(O)c3c1=C(CO)C=N3)=NCCS2`, the GI50 is 296 nM in the assay with MDA-MB-231 breast; 169 nM in the assay with HCC-2998 colon; 256 nM with NCI/ADR-RES ovarian; 224 nM with T-47D breast; 235 nM with SR leukemia; 287 nM with PC-3 prostate. In the assay on SK-MEL-2 melanoma, the GI50 is 250 nM. Besides, the TGI in the assay with MDA-MB-231 breast was determined as 834 nM; in the assay on HCC-2998 colon, 329 nM; with NCI/ADR-RES ovarian, 824 nM; in the assay on T-47D breast, 484 nM; in the assay with SR leukemia, 774 nM; in the assay with PC-3 prostate, 1050 nM. Besides, the TGI in the assay on SK-MEL-2 melanoma came to 658 nM.

Consider `CCCN(CCC)c1ccc(/C=C/c2ccc3cc(OCC)ccc3n2)cc1`, for which the GI50 with MDA-MB-231 breast was more than 100000 nM; in the assay with CAKI-1 renal, 73300 nM; in the assay with HCC-2998 colon it was more than 100000 nM; in the assay with NCI/ADR-RES ovarian, more than 100000 nM; in the assay on T-47D breast it was 15900 nM; with SR leukemia it was 13800 nM. Further, the GI50 in the assay with PC-3 prostate was 56300 nM; in the assay with SK-MEL-2 melanoma, more than 100000 nM. The TGI in the assay on MDA-MB-231 breast, in the assay on CAKI-1 renal, with HCC-2998 colon, with NCI/ADR-RES ovarian, with T-47D breast and in the assay with SR leukemia was more than 100000 nM throughout. For the same compound, the TGI in the assay with PC-3 prostate and with SK-MEL-2 melanoma was more than 100000 nM in each case.

Regarding `Cc1ccc(Cc2cnc(NC(=O)/C=C/c3cccc(C)c3)s2)cc1`, the GI50 in the assay with MDA-MB-231 breast is 397 nM; in the assay with CAKI-1 renal it was 66.3 nM; with HCC-2998 colon, 296 nM; with NCI/ADR-RES ovarian, 135 nM; with T-47D breast it was 577 nM; in the assay on SR leukemia, 44.9 nM. Besides, the values for the GI50 in the assay with PC-3 prostate and in the assay with SK-MEL-2 melanoma were 154 nM and 1680 nM, respectively. Further, the TGI in the assay with MDA-MB-231 breast is 5080 nM; in the assay on CAKI-1 renal it was 11000 nM; in the assay on HCC-2998 colon it was more than 37100 nM; in the assay on NCI/ADR-RES ovarian it was 2060 nM; with T-47D breast it was more than 100000 nM; in the assay on SR leukemia, 2230 nM. Besides, the TGI in the assay on PC-3 prostate and in the assay with SK-MEL-2 melanoma was more than 100000 nM each time.

Regarding `C=C1C(=O)O[C@H]2[C@H]1CC/C(COC(=O)c1cc3ccccc3o1)=C\CC[C@@]1(C)O[C@@H]21`, the GI50 in the assay on MDA-MB-231 breast was 1640 nM; in the assay with HCC-2998 colon, 2470 nM; in the assay with NCI/ADR-RES ovarian, 2590 nM; in the assay with T-47D breast, 1350 nM; in the assay on SR leukemia it was 1150 nM; in the assay on PC-3 prostate it was 1760 nM. The GI50 in the assay with SK-MEL-2 melanoma is 1770 nM. Besides, the TGI with MDA-MB-231 breast amounted to 3550 nM; with HCC-2998 colon it was 5840 nM; with NCI/ADR-RES ovarian it was 10100 nM; in the assay with T-47D breast, 3320 nM; in the assay on SR leukemia, 5330 nM; in the assay with PC-3 prostate, 3720 nM. Moreover, the TGI in the assay with SK-MEL-2 melanoma worked out at 3810 nM.
